The values that follow are results of earlier work, collected in patent publication US5912253A, “Rapamycin derivatives” (Novartis AG, priority 1993, dated 1999).

For series [1], the system named is macrophilin-12 (FK-506 binding protein or FKBP-12).
For series [2] the following is noted: in vivo.

On to `CO[C@H]1C[C@@H]2CC[C@@H](C)[C@@](O)(O2)C(=O)C(=O)N2CCCC[C@H]2C(=O)O[C@H]([C@H](C)C[C@@H]2CC[C@@H](O)[C@H](OC)C2)CC(=O)[C@H](C)/C=C(\C)[C@@H](O)[C@@H](OC)C(=O)[C@H](C)C[C@H](C)/C=C/C=C/C=C/1C` [Rapamycin, rapamycin], for which the solubility entry is “highly insoluble”. The “binding in vivo to macrophilin-12” value in series [1] is reported as “known to bind in vivo to macrophilin-12”. For the same molecule, the bioavailability entry in series [2] is “very low and variable”.

On to `C=CC[C@@H]1/C=C(\C)C[C@H](C)C[C@H](OC)[C@H]2O[C@@](O)(C(=O)C(=O)N3CCCC[C@H]3C(=O)O[C@H](/C(C)=C/[C@@H]3CC[C@@H](O)[C@H](OC)C3)[C@H](C)[C@@H](O)CC1=O)[C@H](C)C[C@@H]2OC` [FK-506], for which the “binding in vivo to macrophilin-12” value in series [1] was “known to bind in vivo to macrophilin-12”.
